Source: patent US20230322724A1, “HETEROCYCLIC COMPOUNDS AS CBP/EP300 BROMODOMAIN INHIBITORS” (AURIGENE ONCOLOGY LIMITED, priority 2020, published 2023)

Assays:
[1] = target: T1, recombinant BRD4 FL bromodomain (Homo sapiens, UniProt O60885); assay: BRD4 FL TR-FRET displacement assay; type: binding; settings: BRD4 FL; for inhibition at 10 µM: read-out: % Inhibition (10 μM); for IC50: dose-response, read-out: IC50 (group A, B, C)
T1 construct: fused on or other part: 6xHis tag, inferred from detection with Mab ANTI 6HIS-XL665
Procedure: The potency of compounds to inhibit BRD4 FL enzyme was tested in a TR-FRET displacement assay using recombinant BRD4 FL bromodomain obtained In-house. The assay buffer was 50 mM HEPES (pH 7.5), 50 mM NaCl, 500 μM CHAPS. 10 nM of BRD4 FL & 300 nM of Biotinylated Acetyl histone H4 (Lys 5, 8, 12, 16) (Millipore, USA) was incubated at room temperature for 30 minutes, the reaction was initiated by adding the pre-incubated enzyme ligand mixture to the test compounds. After 30 min incubation, the reaction was stopped by the addition of stop mix containing 1 nM of Europium Streptavidin cryptate (Cisbio, USA) and 5 nM of Mab ANTI 6HIS-XL665 (Cisbio, USA) dilutes in assay buffer containing 2.4M Potassium Fluoride. Fluorescence emission of the samples at 665 and 615 nm were measured at an excitation of 340 nm and their ratio was plotted against the compound concentrations to generate dose-response curve. The percent inhibition of the test compounds is calculated using the ratio of enzyme activity controls.
Selected compounds of the present invention were screened in the above-mentioned assay procedures and IC50 values were determined by fitting the dose-response data to sigmoidal curve fitting equation using Graph pad prism software V7.

[2] = target: T2, recombinant CREBBP bromodomain (Homo sapiens, UniProt Q92793); assay: CBP TR-FRET displacement assay; type: binding; settings: for inhibition at 10 µM: compound at 10 μM; for IC50: dose-response, read-out: IC50 (group A, B, C)
T2 construct: recombinant CREBBP bromodomain obtained from BPS Bioscience, USA; purchased BPS Bioscience, USA
Procedure: The potency of compounds to inhibit CREBBP enzyme was tested in a TR-FRET displacement assay using recombinant CREBBP bromodomain obtained from BPS Bioscience, USA. The assay buffer was 50 mM HEPES (pH 7.5), 50 mM NaCl, 0.008% Brij 35, 0.01% BSA, 1 mM TCEP. 50 nM of CREBBP & 500 nM of Biotinylated ligand was incubated at room temperature for 30 minutes, the reaction was initiated by adding pre-incubated enzyme ligand mixture to the test compounds. After 60 min incubation, the reaction was stopped by the addition of stop mix containing 1 nM of LANCE Europium-anti-6xHis antibody (Perkin Elmer, USA) and 40 nM of Sure Light Allophycocyanin-Streptavidin (Perkin Elmer, USA). Fluorescence emission of the samples at 665 and 615 nm were measured at an excitation of 340 nm and their ratio was plotted against the compound concentrations to generate dose-response curve. The percent inhibition of the test compounds is calculated using the ratio of enzyme activity controls.
elected compounds of the present invention were screened in the above-mentioned assay procedures and IC50 values were determined by fitting the dose-response data to sigmoidal curve fitting equation using Graph pad prism software V7.

T2 sequence (Q92793 1085-1192 limits assumed): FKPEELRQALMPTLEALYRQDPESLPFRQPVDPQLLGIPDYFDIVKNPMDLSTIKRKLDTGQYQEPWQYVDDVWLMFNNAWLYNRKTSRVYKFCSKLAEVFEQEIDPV

| Structure (SMILES) | inhibition at 10 µM ([1]; compound at 10 μM) | inhibition at 10 µM [2] | IC50 [2] | IC50 [1] | % Inhibition (10 μM) ([1]; compound at 10 μM) |
| --- | --- | --- | --- | --- | --- |
| Cc1cc2c(N3CCCN(C)c4cc(-c5cnn(C)c5)c(C#N)cc43)cccc2[nH]c1=O [Example 5] | 48% | 38% | – | – | – |
| CNC(=O)C1CCN(c2cc3c(cc2C#N)N(c2cc(OC)cc4c2cc(C)c(=O)n4C)CCN3C)CC1 [Example 26] | 24% | – | < 50 nM | – | – |
| COc1cc(N2CCN(C)c3cc(N4CCC(C)(N)CC4)c(C#N)cc32)c2cc(C)c(=O)n(C)c2c1 [Example 29] | – | – | < 50 nM | 2010 to 5000 nM | – |
| CNC(=O)C1CCN(c2cc3c(cc2F)N(c2cc(OC)cc4c2cc(C)c(=O)n4C)CCN3C)CC1 [Example 33] | – | – | 51 to 100 nM | 2010 to 5000 nM | – |
| CCn1c(=O)c(C)cc2c(N3CCN(C)c4cc(-c5cnn(C)c5)c(C#N)cc43)cccc21 [Example 46] | – | 98% | > 10 nM | 2010 to 5000 nM | – |
| CN1CCN(c2cccc3c2ccc(=O)n3C)c2cc(C#N)c(-c3cnn(C)c3)cc21 [Example 51] | – | 99% | – | 2010 to 5000 nM | – |
| CN1CCN(c2cccc3[nH]c(=O)ccc23)c2cc(C#N)c(-c3cnn(C)c3)cc21 [Example 52] | 35% | 83% | – | – | – |
| CNC(=O)N1CCN(c2cc(OC)cc3c2cc(C)c(=O)n3C)c2cc(C#N)c(-c3cnn(C)c3)cc21 [Example 65, 6-Cyano-4-(7-methoxy-1,3-dimethyl-2-oxo-1,2-dihydroquinolin-5-yl)-N-methyl-7-(1-methyl-1H-pyrazol-4-yl)-3,4-dihydroquinoxaline-1(2H)-carboxamide] | – | – | < 50 nM | 2010 to 5000 nM | – |
| CCOC(=O)CN1CCN(c2cc(OC)cc3c2cc(C)c(=O)n3C)c2cc(C#N)c(-c3cnn(C)c3)cc21 [Example 66, Ethyl 2-(6-cyano-4-(7-methoxy-1,3-dimethyl-2-oxo-1,2-dihydroquinolin-5-yl)-7-(1-methyl-1H-pyrazol-4-yl)-3,4-dihydroquinoxalin-1(2H)-yl)acetate] | – | – | < 50 nM | 2010 to 5000 nM | – |
| COc1cc(N2CCN(C)c3cc(C4CCN(C)CC4)c(C#N)cc32)c2cc(C)c(=O)n(C)c2c1 [Example 70, 4-(7-Methoxy-1,3-dimethyl-2-oxo-1,2-dihydroquinolin-5-yl)-1-methyl-7-(1-methylpiperidin-4-yl)-1,2,3,4-tetrahydroquinoxaline-6-carbonitrile] | – | – | 51 to 100 nM | 2010 to 5000 nM | – |
| CONC(=O)COc1cc(N2CCN(C)c3cc(-c4cnn(C)c4)ccc32)c2cc(C)c(=O)n(C)c2c1 [Example 73, 2-((1,3-Dimethyl-5-(4-methyl-6-(1-methyl-1H-pyrazol-4-yl)-3,4-dihydroquinoxalin-1(2H)-yl)-2-oxo-1,2-dihydroquinolin-7-yl)oxy)-N-methoxyacetamide] | – | – | < 50 nM | 2010 to 5000 nM | – |
| Cc1cc2c(N3CCN(C)c4cc(F)c(S(N)(=O)=O)cc43)cc(N3CCOCC3)cc2n(C)c1=O [Example 88] | – | – | < 50 nM | 2010 to 5000 nM | – |
| COc1cc(N2CCCc3ccc(-c4cn[nH]c4)cc32)c2cc(C)c(=O)n(C)c2c1 [Example 198, 7′-Methoxy-1′,3′-dimethyl-7-(1H-pyrazol-4-yl)-3,4-dihydro-2H-[1,5′-biquinolin]-2′(1′H)-one] | – | – | – | 2010 to 5000 nM | – |
| CNC(=O)c1ccc(-c2cc3c(cc2C(F)F)N(c2nc(N4CCOCC4)cc4c2cc(C)c(=O)n4C)CCC3)cn1 [Example 203] | – | – | – | 2010 to 5000 nM | – |
| Cc1cc2c(N3CCCc4cc(-c5cnn(C)c5)c(C(F)F)cc43)nc(-n3ccnc3)cc2n(C)c1=O [Example 204] | 12% | – | – | – | – |

Continued, values first:

| inhibition at 10 µM ([1]; compound at 10 μM) | inhibition at 10 µM [2] | IC50 [2] | IC50 [1] | % Inhibition (10 μM) ([1]; compound at 10 μM) | Structure (SMILES) |
| --- | --- | --- | --- | --- | --- |
| – | – | 51 to 100 nM | 2010 to 5000 nM | – | CNC(=O)C1CN(c2cc3c(cc2C#N)N(c2cc(OC)cc4c2cc(C)c(=O)n4C)CCN3C)C1 [Example 27] |
| – | – | < 50 nM | 2010 to 5000 nM | – | CNC(=O)c1ccc(-c2cc3c(cc2F)N(c2cc(OC)cc4c2cc(C)c(=O)n4C)CCN3C)cn1 [Example 31] |
| 56% | – | 51 to 100 nM | – | – | COc1cc(N2CCN(C)c3ccc(C(C)=O)cc32)c2cc(C)c(=O)n(C)c2c1 [Example 79, 5-(7-Acetyl-4-methyl-3,4-dihydroquinoxalin-1(2H)-yl)-7-methoxy-1,3-dimethylquinolin-2(1H)-one] |
| – | – | 51 to 100 nM | 2010 to 5000 nM | – | Cc1cc2c(N3CCN(C)c4ccc(C#N)cc43)cc(OCC(=O)O)cc2n(C)c1=O [Example 82, 2-((5-(7-Cyano-4-methyl-3,4-dihydroquinoxalin-1(2H)-yl)-1,3-dimethyl-2-oxo-1,2-dihydroquinolin-7-yl)oxy)acetic acid] |
| – | – | > 10 nM | 2010 to 5000 nM | – | COc1cc(N2CCN(C)c3ccc(CC(=O)NO)cc32)c2cc(C)c(=O)n(C)c2c1 [Example 83, N-hydroxy-2-(4-(7-methoxy-1,3-dimethyl-2-oxo-1,2-dihydroquinolin-5-yl)-1-methyl-1,2,3,4-tetrahydroquinoxalin-6-yl)acetamide] |
| – | – | 51 to 100 nM | 2010 to 5000 nM | – | Cc1cc2c(N3CCN(C)c4ccc(S(N)(=O)=O)cc43)cccc2n(C)c1=O [Example 85, 4-(1,3-dimethyl-2-oxo-1,2-dihydroquinolin-5-yl)-1-methyl-1,2,3,4-tetrahydroquinoxaline-6-sulfonamide] |
| – | – | 51 to 100 nM | 2010 to 5000 nM | – | Cc1cc2c(N3CCN(C)c4cc(F)c(S(N)(=O)=O)cc43)cccc2n(C)c1=O [Example 87] |
| – | – | < 50 nM | 2010 to 5000 nM | – | COc1cc(N2CCN(C)c3cc(C4CC=NO4)c(S(N)(=O)=O)cc32)c2cc(C)c(=O)n(C)c2c1 (stereo not shown) [Example 91, 7-(4,5-Dihydroisoxazol-5-yl)-4-(7-methoxy-1,3-dimethyl-2-oxo-1,2-dihydroquinolin-5-yl)-1-methyl-1,2,3,4-tetrahydroquinoxaline-6-sulfonamide] |
| – | – | < 50 nM | 2010 to 5000 nM | – | CNS(=O)(=O)c1ccc2c(c1)N(c1cc(OC)cc3c1cc(C)c(=O)n3C)CCN2C [Example 95] |
| – | – | 51 to 100 nM | 2010 to 5000 nM | – | COc1cc(N2CCN(C3CC3)c3ccc(S(N)(=O)=O)cc32)c2cc(C)c(=O)n(C)c2c1 [Example 96] |
| 56% | – | < 50 nM | – | – | COc1cc(N2CCN(C)c3ccc(S(=O)(=O)NC(C)=O)cc32)c2cc(C)c(=O)n(C)c2c1 [Example 98] |
| – | – | 51 to 100 nM | 2010 to 5000 nM | – | COc1cc(N2CCN(C)c3ccc(S(C)(=O)=O)cc32)c2cc(C)c(=O)n(C)c2c1 [Example 100] |
| – | – | > 10 nM | 2010 to 5000 nM | – | COc1cc(N2CCN(C)c3ccc(S(=O)(=O)Nc4ccccc4)cc32)c2cc(C)c(=O)n(C)c2c1 [Example 102] |
| 36% | – | > 10 nM | – | – | CC(=O)NS(=O)(=O)c1ccc2c(c1)N(c1cccc3c1cc(C)c(=O)n3C)CCN2C [Example 103, N-((4-(1,3-dimethyl-2-oxo-1,2-dihydroquinolin-5-yl)-1-methyl-1,2,3,4-tetrahydroquinoxalin-6-yl)sulfonyl)acetamide] |
| 48% | – | < 50 nM | – | – | COc1cc(N2CCN(C)c3cc(F)c(S(=O)(=O)NC(C)=O)cc32)c2cc(C)c(=O)n(C)c2c1 [Example 104] |
| 16% | – | 51 to 100 nM | – | – | CCC(=O)NS(=O)(=O)c1ccc2c(c1)N(c1cc(OC)cc3c1cc(C)c(=O)n3C)CCN2C [Example 106] |
| – | – | – | – | 45% | COc1cc(N2CCCc3ccc(S(=O)(=O)NC(C)=O)cc32)c2cc(C)c(=O)n(C)c2c1 [Example 199, N-((T-methoxy-1′,3′-dimethyl-2′-oxo-1′,2′,3,4-tetrahydro-2H-[1,5′-biquinolin]-7 yl)sulfonyl)acetamide] |
